Assay results as given in patent US5270304A, “Therapeutic 2-alkynyl adenosine agent for ischemic diseases of the heart or brain” (priority 1988, dated 1993).

Assays:
[1] = tested on: coronary artery; assay: Coronary artery blood flow increasing effect; type: in vivo, mongrel dogs; settings: Canis lupus familiaris; anesthetized dogs, intraarterial into coronary artery; 100% = reactive hyperemia after 15 s occlusion
Method: Adult mongrel dogs weighing 9 to 15 kg were anesthetized with pentobarbital sodium, and the chest of each was opened under artificial respiration. After pericardium excision, the left anterior descending coronary artery was peeled off from the surrounding tissues, a probe for blood flow measurement was set under heparin sodium treatment, and the coronary blood flow was measured by the use of an electromagnetic blood flow meter.
The test drug was injected intraarterially into the coronary artery.

[2] = tested on: platelet aggregation; assay: Platelet aggregation inhibitory effect (ADP-induced aggregation of washed platelets); type: cell-based, Nippon white rabbits; settings: Oryctolagus cuniculus, washed rabbit platelets, 10 μM adenosine 5'-diphosphate, drug added 3 min before
Method: Male Nippon white rabbits weighing 2.0 to 2.5 kg were used. […] Next, centrifugation was carried out at 140×g for 15 minutes, and the supernatant (platelet-enriched plasma: PRP) was collected. The PRP was centrifuged at 1300×g for 7 minutes. The platelet pellets obtained were washed with a HEPES buffer for platelet washing (pH 6.5) and centrifuged at 1300×g for 7 minutes. […] For assaying platelet aggregation ability, an aggregometer was used, and 10 μl of a test drug was added to 380 μl of the platelet suspension. Three minutes later, 10 μl of a platelet aggregating substance (10 μM adenosine 5'-diphosphate at a final concentration) was added thereto to induce aggregation. […]

[3] = Effect on renal blood flow (renal blood flow reduction effect); settings: dog, in vivo
Method: (§2) Female and male adult mongrel dogs weighing 10 to 15 kg were used. After each dog was anesthetized by intravenous administration of 30 mg/kg of pentobarbital sodium, it was fixed on the back, and the left lower abdominal portion was cut open under artificial respiration to expose the left renal artery. Under heparin sodium treatment, a polyethylene cannula was inserted into the renal artery, and at the other end of the cannula was set a probe for blood flow measurement. Self-perfusion was effected by means of a tube for blood perfusion led from the left femoral artery and connected to the probe, and the renal artery blood flow was measured by means of an electromagnetic blood flow meter.
(§3) The test drug was injected intraarterially into the renal artery.

[4] = tested on: atrioventricular conduction; assay: Effect on atrioventricular conduction (atrioventricular block appearance ratio); type: in vivo, guinea pigs; settings: for Atrioventricular Block Appearance Ratio (Number of Animals Showing Appearance/Number of Animals Used): guinea pigs, second degree block, after intravenous 300 μg/kg
Method: Each of male guinea pigs weighing 360 to 600 g, after being anesthetized by intraperitoneal administration of 1.4 g/kg of urethane, was fixed on the back, and the trachea was cut open for ensuring airway, a polyethylene tube being inserted thereinto. The blood pressure was measured through a carrier amplifier by connecting the cannula inserted into the left common carotid artery to a pressure transducer. The electrocardiogram was recorded by means of a bioelectric amplifier according to the second induction method, and the PQ interval was measured from the electrocardiogram. The test drug was administered through the left femoral vein, and the presence or absence of appearance of atrioventricular block is represented by the appearance ratio of the second degree of atrioventricular block (number of animals showing appearance/number of animals used) by the test drug administration.

[5] = tested on: vertebral artery; assay: Vertebral artery blood flow increasing effect; type: in vivo, mongrel dogs; settings: Canis lupus familiaris; anesthetized dogs, intraarterial into vertebral artery; 100% = increase by 100 μg/kg papaverine hydrochloride
Method: The chests of female and male adult mongrel dogs weighing 8 to 13 kg, under anesthesia by intravenous administration of pentobarbital sodium, were opened under artificial respiration along the median line to expose the left vertebral artery.
The test drug was injected intraarterially into the vertebral artery.

[6] = tested on: coronary artery / renal artery; assay: Safety coefficient (margin of safety from renal blood flow reduction and coronary artery blood flow increase); set-up: species or system mongrel dogs
Description: As described above, the 2-alkynyladenosine, which is the active ingredient of the drug of the present invention, has a remarkable platelet aggregation inhibitory effect, blood flow increasing effect of various blood vessels (coronary artery and vertebral artery) and brain protecting effect in combination. […] To describe in more detail, the 2-alkynyladenosine, which is the active ingredient of the present drug, has an extremely high ratio of the primary effects such as platelet aggregation inhibitory effect, blood flow increasing effect of various blood vessels, and brain protecting effect to the side-effects such as atrioventricular block appearance ratio and renal blood flow reduction effect, that is, the 2-alkynyladenosine has an extremely broad margin of safety as compared to the prior compounds. For example, the margins of safety (coefficients) of the 2-alkynyladenosine calculated on the basis of the results in TABLE 2 and TABLE 4 by taking an example of coronary artery blood flow increasing effect as the primary effect and renal blood flow reduction effect as the side-effect are as shown below in TABLE 5. From TABLE 5, it can be understood that the 2-alkynyladenosine is a compound having a broader margin of safety as compared with adenosine.

[7] = tested on: ICR mice; assay: Brain protecting effect: potassium cyanide (KCN)-induced anoxia method; type: in vivo; settings: 30 min before 2.5 mg/kg KCN, (±S.E.), * P < 0.05
[8] = in vivo; settings: dog
Method: as §2, §3

[9] = tested on: ICR mice; assay: Brain protecting effect: normobaric hypoxia method; type: in vivo; settings: 30 min before 96% N2/4% O2, (±S.E.), control 126.8 ±10.7
Method: When the brain falls into hypoxia by cerebral circulatory disorder, its function will be rapidly and irreversibly lost. Accordingly, the pharmacological activities of the drugs were evaluated with the extension time relative to the survival time of the test animals under hypoxia or anoxia induced by changing gas phase components or by a drug.
Evaluation of the pharmacological activity by the normobaric hypoxia method was conducted by following the method of Yasuda et al. (Arch. Int. Pharmacodyn, 233, 136-144 (1978)) as described below.
Animals used were 8 to 11 male ICR mice of 7 weeks age (Clea Japan) per group.
The mice were placed in a desiccator made of glass, and hypoxia was induced by passing a gas mixture of 96% N2 and 4% O2 at a flow rate of 5 liters/min. The time after the passing of the gas into the desiccator to the respiration arrest of each mouse was measured and defined as the survival time.
The test drug was administered intraperitoneally 30 minutes before the initiation of gas passing. The average survival times for the control group and the group to which the test drug was administered were calculated.
The test drug was suspended in a physiological saline containing 0.5% CMC (carboxymethyl cellulose), and the dosage was 0.1 ml per 10 g of body weight. To the mice of the control group was administered 0.5% of the CMC physiological saline in the same manner. The statistical analysis was conducted according to the student's t-test.

[10] = tested on: Slc:ICR mice; assay: Acute toxicity; settings: mouse, in vivo, po, 1000 mg/kg
Method: (§1) By the use of Slc:ICR mice (7 to 8 weeks old), the acute toxicity tests of Compound 4 (n=5) and Compound 12 (n=13) were conducted.

[11] = Acute toxicity; settings: mouse, in vivo; mice, oral administration, estimated
Method: as §1

Row | Structure (SMILES) | ED50 [1] [mg/kg] | IC50 [2] [nM] | ED50 [3] [mg/kg] | Atrioventricular Block Appearance Ratio (Number of Animals Showing Appearance/Number of Animals Used) [4] | ED50 [5] [mg/kg] | Safety Coefficient ([6]; from TABLE 2 coronary artery blood flow increasing effect and TABLE 4 renal blood flow reduction effect) | Average Survival Time, Potassium Cyanide Induced Anoxia Method ([7]; 1.0 mg/kg i.p., control (1) 39.8 (±2.4)) | atrioventricular block appearance ratio compared with adenosine ([4]; 300 μg/kg intravenous) | ED50 [8] [mg/kg] | Safety Coefficient ([6]; dog, in vivo) | Average Survival Time, Normobaric Hypoxia Method ([9]; 0.1 mg/kg i.p.) | Average Survival Time, Normobaric Hypoxia Method ([9]; 0.3 mg/kg i.p.) | Average Survival Time, Normobaric Hypoxia Method ([9]; 1.0 mg/kg i.p., ** P < 0.01) | lethal cases [10] | LD50 [11] [mg/kg] | Average Survival Time, Normobaric Hypoxia Method ([9]; 3.0 mg/kg i.p., ** P < 0.01) | Average Survival Time, Potassium Cyanide Induced Anoxia Method ([7]; 30 mg/kg i.p., control (2) 41.8 (±1.9))
1 | Nc1ncnc2c1ncn2[C@@H]1O[C@H](CO)[C@@H](O)[C@H]1O [Adenosine] | 0.0001 | 3200 | 0.0002 | 6/6 | 0.00052 | 2 | – | – | – | – | – | – | – | – | – | – | –
2 | CCCCC#Cc1nc(N)c2ncn([C@@H]3O[C@H](CO)[C@@H](O)[C@H]3O)c2n1 [Compound 2, 2-hexynyladenosine] | – | 61 | – | 6/6 | 0.00014 | – | 50.05 (±3.8) sec. | same atrioventricular block appearance ratio as that of adenosine | 0.00015 | 75 | 171.9 (±22.1) sec. | 169.2 (±23.5) sec. | 217.3 (±26.2) sec. | – | – | – | –
3 | CCCCCCC#Cc1nc(N)c2ncn([C@@H]3O[C@H](CO)[C@@H](O)[C@H]3O)c2n1 [Compound 4, 2-octynyladenosine] | – | 140 | – | 1/6 | 0.0004 | – | – | – | > 0.003 | > 375 | – | 128.7 (±4.8) sec. | 222.9 (±25.9) sec. | no lethal case was recognized | ≥ 1000 | 230.6 (±26.7) sec. | –
4 | CCCCCCCC#Cc1nc(N)c2ncn([C@@H]3O[C@H](CO)[C@@H](O)[C@H]3O)c2n1 [Compound 5] | – | 210 | – | 0/6 | 0.0012 | – | – | – | > 0.003 | > 40 | – | – | – | – | – | – | –
5 | CCCCCCCCC#Cc1nc(N)c2ncn([C@@H]3O[C@H](CO)[C@@H](O)[C@H]3O)c2n1 [Compound 6] | 0.00015 | 720 | – | 1/6 | > 0.003 | – | – | – | > 0.003 | > 20 | – | – | – | – | – | – | –
6 | CCCCCCCCCCCCCCC#Cc1nc(N)c2ncn([C@@H]3O[C@H](CO)[C@@H](O)[C@H]3O)c2n1 [Compound 12, 2-hexadecynyladenosine] | > 0.0001 | > 3100 | – | 0/6 | > 0.003 | – | – | – | > 0.003 | 30 | – | – | – | no lethal case was recognized | ≥ 1000 | – | 76.7 (±11.7) sec.
